This is an account of results in patent publication US4370323A, “2-Cyanoaziridinyl-(1)-2-substituted-aziridinyl-(1)-methanes” (Boehringer Mannheim GmbH, priority 1976, dated 1983).

Series [1] deals with leukocytes, lymphocytes, erythrocytes, antibody-forming spleen cells. To be noted: intravenous; cited from earlier work.
The conditions of series [2]: prior art compound, cited from earlier work.
The next series concerns leucocyte number. Nature of the series: Alteration of the leucocyte number in rats. Type of series: in vivo, female Sprague-Dawley rats. To be noted: fourth day, ten rats; for response vs control in vivo at 50 mg/kg / response vs control in vivo at 200 mg/kg: Rattus norvegicus, Leucocyte, po, 96 h, read-out: proportion of the average leucocyte number of the test group to that of the control group; for proportion of the average leucocyte number of the test group to that of the control group: oral. As to the method: (a) Alteration of the leucocyte number
The active substance was dissolved in each case in 10 ml of a 1% methyl-hydroxyethyl cellulose solution per kg of body weight and orally applied by means of a neck tube to ten fasting female Sprague-Dawley rats in each case. On the fourth day, blood was taken retroorbitally and the leucocyte number was determined by means of a coult counter.

The next series has as its system Walker-Carcinoma 256. Nature of the series: Cancerostatic effect: Walker-Carcinoma 256 transplanted in rats. Format: in vivo, female Sprague-Dawley rats. Conditions: for Tumor weight: three days prior to tumor application, day 7, average of 20 animals; for Difference (tumor weight): vs control. Here is the method: (§1) Ready-to-be-transplanted tumors of various kinds were taken from freshly killed rats, comminuted coarsely and pulverized with addition of 8 ml of physiological sodium chloride solution. Female Sprague-Dawley rats weighing 80 to 100 g were used as test animals. The respective tumor cell suspension was applied subfacially to the animals in an amount of 0.5 ml per animal under sterile conditions in the neck area. On the seventh day after the transplantation the animals were killed, the tumors taken out and weighed. The substances according to the instant invention were in each case applied orally three days prior to the tumor application by means of a throat tube (in 10 ml 1% hydrous methylhydroxylethyl cellulose solution per kg of body weight).

In the next series the test system is DC-Carcino-Sarcoma. Nature of the series: Cancerostatic effect: DC-Carcino-Sarcoma transplanted in rats. Format: in vivo, female Sprague-Dawley rats. Conditions: for Tumor weight: three days prior to tumor application, day 7, average of 20 animals; for Difference (tumor weight): vs control. As to the method: as §1

As for `N#CC1CN1C(N)=O` (stereo not shown) [1-carboxamido-2-cyanoaziridine], in series [1], the antibody-forming spleen cells result was “increase of the antibody-forming spleen cells”; the cytostatic action entry was “cytostatic action”; the number of erythrocytes result was “substantially unchanged”; the “number of leukocytes and lymphocytes” value is “marked increase”. In addition, the “keeping time in buffered aqueous solution” value in series [2] (buffered aqueous solution) is “can only be kept for a short time”. Moreover, the acid stability result in series [2] is reported as “acid lability”.

With `CC(C)C(N1CC1C#N)N1CC1C(N)=O` (stereo not shown) [27 a], in the series on leucocyte number (50 mg per kg body weight), the response vs control in vivo at 50 mg/kg is 119%. Also, the response vs control in vivo at 200 mg/kg in the series with leucocyte number (200 mg per kg body weight) came out at 166%.

On to `CCC(N1CC1C#N)N1CC1C(N)=O` (stereo not shown) [27 d], for which the response vs control in vivo at 50 mg/kg with leucocyte number (50 mg per kg body weight) amounted to 140%. Moreover, the response vs control in vivo at 200 mg/kg in the series on leucocyte number (200 mg per kg body weight) came out at 178%.

Consider `CCCC(N1CC1C#N)N1CC1C(N)=O` (stereo not shown) [27 e], for which the response vs control in vivo at 50 mg/kg with leucocyte number (50 mg per kg body weight) worked out at 130%. Also, the response vs control in vivo at 200 mg/kg in the series with leucocyte number (200 mg per kg body weight) is 136%.

For `N#CC1CN1C1(N2CC2C(N)=O)CCOCC1` (stereo not shown) [28 a], the response vs control in vivo at 50 mg/kg in the series with leucocyte number (50 mg per kg body weight) turned out to be 109%. In the series with leucocyte number (200 mg per kg body weight), the response vs control in vivo at 200 mg/kg stood at 130%.

In the case of `N#CC1CN1C(C1CCCCC1)N1CC1C(N)=O` (stereo not shown) [28 b], in the series with leucocyte number (50 mg per kg body weight), the response vs control in vivo at 50 mg/kg was found to be 120%. Further, the response vs control in vivo at 200 mg/kg with leucocyte number (200 mg per kg body weight) came out at 155%.

With `N#CC1CN1C(c1ccc(Cl)cc1)N1CC1C(N)=O` (stereo not shown) [29 b], in the series with leucocyte number (50 mg per kg body weight), the response vs control in vivo at 50 mg/kg is 100%. Further, in the series with leucocyte number (200 mg per kg body weight), the response vs control in vivo at 200 mg/kg was 140%.

As for `N#CC1CN1C(c1ccco1)N1CC1C(N)=O` (stereo not shown) [29 d], the response vs control in vivo at 50 mg/kg in the series on leucocyte number (50 mg per kg body weight) is 100%. In the series on leucocyte number (200 mg per kg body weight), the response vs control in vivo at 200 mg/kg is 130%.

Turning to `N#CC1CN1C(c1cccs1)N1CC1C(N)=O` (stereo not shown) [29 e], the response vs control in vivo at 50 mg/kg with leucocyte number (50 mg per kg body weight) is 115%. For the same compound, the response vs control in vivo at 200 mg/kg in the series on leucocyte number (200 mg per kg body weight) came to 150%.

`N#CC1CN1C(c1cccc([N+](=O)[O-])c1)N1CC1C(N)=O` (stereo not shown) [29 f]: in the series on leucocyte number (50 mg per kg body weight), the response vs control in vivo at 50 mg/kg came out at 109%. In the series on leucocyte number (200 mg per kg body weight), the response vs control in vivo at 200 mg/kg worked out at 126%.

For `Cc1ccccc1C(N1CC1C#N)N1CC1C(N)=O` (stereo not shown) [30 a], the response vs control in vivo at 50 mg/kg in the series with leucocyte number (50 mg per kg body weight) was determined as 140%. Further, the response vs control in vivo at 200 mg/kg in the series with leucocyte number (200 mg per kg body weight) came to 134%.

Take `COc1cccc(C(N2CC2C#N)N2CC2C(N)=O)c1` (stereo not shown) [30 b]: the response vs control in vivo at 50 mg/kg with leucocyte number (50 mg per kg body weight) came to 122%. For the same compound, in the series on leucocyte number (200 mg per kg body weight), the response vs control in vivo at 200 mg/kg turned out to be 131%.

For the compound `N#CC1CN1C(c1ccc(O)cc1)N1CC1C(N)=O` (stereo not shown) [30 c], in the series with leucocyte number (50 mg per kg body weight), the response vs control in vivo at 50 mg/kg came out at 170%. Moreover, in the series with leucocyte number (200 mg per kg body weight), the response vs control in vivo at 200 mg/kg is 221%.

As for `COC(=O)c1ccc(C(N2CC2C#N)N2CC2C(N)=O)cc1` (stereo not shown) [30 d], in the series with leucocyte number (50 mg per kg body weight), the response vs control in vivo at 50 mg/kg amounted to 108%. In addition, in the series with leucocyte number (200 mg per kg body weight), the response vs control in vivo at 200 mg/kg stood at 150%.

Regarding `CC(C)(N1CC1C#N)N1CC1C(N)=O` (stereo not shown) [Example 3, 2-[2-Cyanoaziridinyl-(1)]-2-[2-carbamoylaziridinyl-(1)]-propane], the “proportion of the average leucocyte number of the test group to that of the control group” value (shortened to “proportion”) is reported as 1,42 in the series with leucocyte number (50 mg per kg body weight) and 1,82 with leucocyte number (200 mg per kg body weight).

Take `CCOC(=O)C(C)(N1CC1C#N)N1CC1C(N)=O` (stereo not drawn) [Example 6, Ethyl α-[2-cyanoaziridinyl-(1)]-α-[2-carbamoylaziridinyl-(1)]-propionate]: the response vs control in vivo at 50 mg/kg with leucocyte number (50 mg per kg body weight) came to 115%. Besides, in the series on leucocyte number (200 mg per kg body weight), the response vs control in vivo at 200 mg/kg came to 165%.

With `CC(C1CC1)(N1CC1C#N)N1CC1C(N)=O` (stereo not shown) [Example 9, 1-[2-cyanoaziridinyl-(1)]-1-[2-carbamoylaziridinyl-(1)]-1-cyclopropylethane], the response vs control in vivo at 50 mg/kg with leucocyte number (50 mg per kg body weight) amounted to 132%. For the same compound, in the series on leucocyte number (200 mg per kg body weight), the response vs control in vivo at 200 mg/kg was 182%.

As for `N#CC1CN1C1(N2CC2C(N)=O)CCCCC1` (stereo not shown) [Example 10, 1-[2-Cyanoaziridinyl-(1)]-1-[2-carbamoylaziridinyl-(1)]cyclohexane], the Tumor weight is 7.9 g in the series on Walker-Carcinoma 256 (10.0 mg/kg oral); 5.0 g with Walker-Carcinoma 256 (50.0 mg/kg oral); 4.5 g in the series on Walker-Carcinoma 256 (100.0 mg/kg oral); 11.0 g with DC-Carcino-Sarcoma (50 mg/kg oral); 10.9 g in the series on DC-Carcino-Sarcoma (100 mg/kg oral). Also, the “Difference (tumor weight)” value in the series with Walker-Carcinoma 256 (50.0 mg/kg oral) was -41.7%; with Walker-Carcinoma 256 (100.0 mg/kg oral), -46.9%; in the series with DC-Carcino-Sarcoma (50 mg/kg oral), -38.5%; in the series with DC-Carcino-Sarcoma (100 mg/kg oral), -40.0%. The “proportion” value in the series on leucocyte number (50 mg per kg body weight) is recorded as 0,92; with leucocyte number (200 mg per kg body weight), 2,06.

Regarding `N#CC1CN1C1(N2CC2C(N)=O)CCCCC1` (stereo not shown) [Example 16, 1-[2-Cyanoaziridinyl-(1)]-1-[2-carbamoylaziridinyl-(1)]-cyclohexane], the “proportion” value in the series with leucocyte number (50 mg per kg body weight) is listed as 1,30; in the series on leucocyte number (200 mg per kg body weight) it was 1,50.

As for `CC1CCC(N2CC2C#N)(N2CC2C(N)=O)CC1` (stereo not shown) [Example 19, 1-[2-Cyanoaziridinyl-(1)]-1-[2-carbamoylaziridinyl-(1)]-4-methylcyclohexane], the response vs control in vivo at 50 mg/kg in the series on leucocyte number (50 mg per kg body weight) is 100%. The response vs control in vivo at 200 mg/kg in the series with leucocyte number (200 mg per kg body weight) amounted to 136%.

For `COC(=O)C1CCC(N2CC2C#N)(N2CC2C(N)=O)CC1` (stereo not shown) [Example 20, 1-[2-Cyanoaziridinyl-(1)]-1-[2-carbamoylaziridinyl-(1)]-4-methoxycarbonylcyclohexane], in the series with leucocyte number (50 mg per kg body weight), the response vs control in vivo at 50 mg/kg amounted to 123%. Further, in the series on leucocyte number (200 mg per kg body weight), the response vs control in vivo at 200 mg/kg turned out to be 151%.

Regarding `N#CC1CN1C1CCCC(N2CC2C#N)(N2CC2C(N)=O)C1` (stereo not shown) [Example 21, 1,3-Bis-[2-cyanoaziridinyl-(1)]-1-[2-carbamoylaziridinyl-(1)]-cyclohexane], in the series on leucocyte number (50 mg per kg body weight), the response vs control in vivo at 50 mg/kg is 111%. Besides, the response vs control in vivo at 200 mg/kg in the series on leucocyte number (200 mg per kg body weight) was 130%.

`N#CC1CN1C(c1ccccc1)(c1ccccc1)N1CC1C(N)=O` (stereo not drawn) [Example 26, α-[2-Cyanoaziridinyl-(1)]-α-[2-carbamoylaziridinyl-(1)]-diphenylmethane]: in the series with leucocyte number (50 mg per kg body weight), the response vs control in vivo at 50 mg/kg worked out at 125%. Moreover, the response vs control in vivo at 200 mg/kg in the series with leucocyte number (200 mg per kg body weight) is 120%.

On to `CC(N1CC1C#N)N1CC1C(N)=O` (stereo not shown) [Example 27, 1-[2-Cyanoaziridinyl-(1)]-1-[2-carbamoylaziridinyl-(1)]-ethane], for which the response vs control in vivo at 50 mg/kg in the series with leucocyte number (50 mg per kg body weight) amounted to 117%. Also, the response vs control in vivo at 200 mg/kg in the series on leucocyte number (200 mg per kg body weight) was determined as 153%.

Consider `N#CC1CN1C1(N2CC2C(N)=O)CCCSC1` (stereo not shown) [Example 28, 3-[2-Cyanoaziridinyl-(1)]-3-[2-carbamoylaziridinyl-(1)]-tetrahydrothiapyran], for which the response vs control in vivo at 50 mg/kg in the series on leucocyte number (50 mg per kg body weight) came out at 126%. In the series on leucocyte number (200 mg per kg body weight), the response vs control in vivo at 200 mg/kg stood at 180%.

For the compound `N#CC1CN1C(C=Cc1ccccc1)N1CC1C(N)=O` (stereo not shown) [Example 31, 3-[2-cyanoaziridinyl-(1)]-3-[2-carbamoylaziridinyl-(1)]-1-phenylprop-1-ene], the response vs control in vivo at 50 mg/kg in the series with leucocyte number (50 mg per kg body weight) was determined as 113%. Besides, the response vs control in vivo at 200 mg/kg in the series with leucocyte number (200 mg per kg body weight) was 141%.

`N#CC1CN1C1(N2CC2C#N)CCCCC1` (stereo not shown) [Example 32, 1,1-bis-[2-cyanoaziridinyl-(1)]-cyclohexane]: the response vs control in vivo at 50 mg/kg with leucocyte number (50 mg per kg body weight) amounted to 150%. The response vs control in vivo at 200 mg/kg with leucocyte number (200 mg per kg body weight) was 150%.
